Measurements taken from patent US12263171B2, “7-, 8-, and 10-substituted amino triazolo quinazoline derivatives as adenosine receptor antagonists, pharmaceutical compositions and their use” (Merck Sharp & Dohme LLC, priority 2018, dated 2025).
pIC50: −log10 of the molar value.

Columns and labels:
[1] = target: human A2a adenosine receptor (Homo sapiens (Human), UniProt P29274); experiment: A2a receptor affinity radioligand binding assay ([3H] SCH58261, membranes from HEK293 or CHO cells); settings: unstarred values: radioligand binding
Outline: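 Displacement of tritiated SCH58261 (working dilution 4 nM) from recombinant human A2a receptor membranes (HEK293 or CHO), 60 min at room temperature in Tris pH 7.4/MgCl2 buffer after 15–30 min compound preincubation. Scintillation counting after filtration; normalized percent effect fitted 4-parameter logistic for IC50.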

[2] = target: human A2b adenosine receptor (Homo sapiens (Human), UniProt P29275); experiment: A2b radioligand filtration binding assay (tritiated proprietary A2b antagonist, HEK293 membranes); settings: for pIC50: unstarred values: radioligand binding; for A2B binding % inh. @ 10000 nM: unstarred
Outline: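 Displacement of a tritiated proprietary A2b antagonist from membranes of HEK293 cells recombinantly expressing human A2b receptor, measured by filtration and scintillation counting. Percent effect was normalized to total and non-specific binding and fitted with a 4-parameter logistic to give IC50.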

human A2b adenosine receptor, sequence (P29275 whole entry): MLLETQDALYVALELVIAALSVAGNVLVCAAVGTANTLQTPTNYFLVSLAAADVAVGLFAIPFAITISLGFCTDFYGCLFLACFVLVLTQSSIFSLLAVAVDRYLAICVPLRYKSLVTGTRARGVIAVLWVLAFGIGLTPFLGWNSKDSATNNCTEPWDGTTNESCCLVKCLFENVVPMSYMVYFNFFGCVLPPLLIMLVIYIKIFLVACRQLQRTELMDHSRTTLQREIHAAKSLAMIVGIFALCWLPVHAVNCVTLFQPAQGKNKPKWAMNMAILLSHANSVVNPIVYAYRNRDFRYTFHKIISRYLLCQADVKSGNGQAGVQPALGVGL
human A2a adenosine receptor, sequence (P29274 whole entry): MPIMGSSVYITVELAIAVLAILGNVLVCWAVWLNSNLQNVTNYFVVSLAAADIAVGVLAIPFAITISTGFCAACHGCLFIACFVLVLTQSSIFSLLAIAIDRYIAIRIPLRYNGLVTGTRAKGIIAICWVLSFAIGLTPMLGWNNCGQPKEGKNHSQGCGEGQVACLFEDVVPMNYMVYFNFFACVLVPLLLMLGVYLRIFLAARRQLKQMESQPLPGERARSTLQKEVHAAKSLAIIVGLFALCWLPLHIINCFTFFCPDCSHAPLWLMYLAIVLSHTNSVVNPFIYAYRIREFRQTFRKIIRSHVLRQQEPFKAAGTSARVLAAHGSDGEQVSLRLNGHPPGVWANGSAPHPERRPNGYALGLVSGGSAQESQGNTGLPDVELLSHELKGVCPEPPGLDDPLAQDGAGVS

| Compound | pIC50 [1] | pIC50 [2] | A2B binding % inh. @ 10000 nM [2] [% inh. @ 10000 nM] |
| --- | --- | --- | --- |
| COc1cccc2c1nc(N)n1nc([C@@H]3CCCN(c4cnn(C5CCS(=O)(=O)CC5)c4)C3)nc21 [Example 122, (R)-4-(4-(3-(5-amino-7-methoxy-[1,2,4]triazolo[1,5-c]quinazolin-2-yl)piperidin-1-yl)-1H-pyrazol-1-yl)tetrahydro-2H-thiopyran 1,1-dioxide] | 10.00 | 7.23 | – |
| COc1cccc2c1nc(N)n1nc(C3CCCN(c4cnn(C)c4)[C@H]3C)nc21 (stereo partly shown) [Example 128A] | 6.06 | – | 18 |
| COc1cccc2c1nc(N)n1nc(C3CCCN(c4cnn(C)c4)[C@@H]3C)nc21 (stereo partly shown) [Example 128B] | 5.20 | – | 14 |
| COc1cccc2c1nc(N)n1nc([C@@H]3CCC[C@H](c4cnn(C)c4)C3)nc21 [Example 136D] | 7.54 | 5.70 | – |
| COc1cccc2c1nc(N)n1nc([C@H]3CCO[C@@H](c4cnn(C)c4)C3)nc21 [Example 139A] | 6.78 | 5.61 | – |
| COc1cccc2c1nc(N)n1nc([C@@H]3CCO[C@@H](c4cnn(C)c4)C3)nc21 [Example 139B] | 8.49 | 5.72 | – |
| COc1cccc2c1nc(N)n1nc([C@H]3CCO[C@H](c4cnn(C)c4)C3)nc21 [Example 139C] | 6.99 | 5.74 | – |
| COc1cccc2c1nc(N)n1nc([C@@H]3CCO[C@H](c4cnn(C)c4)C3)nc21 [Example 139D] | 7.23 | 5.28 | – |
| CCn1cc(N2C[C@H](c3nc4c5cccc(OC)c5nc(N)n4n3)CC[C@H]2C)cn1 [Example 140B] | 8.89 | 6.12 | – |
| CCn1cc(N2C[C@@H](c3nc4c5cccc(OC)c5nc(N)n4n3)CC[C@@H]2C)cn1 [Example 140C] | 9.22 | 7.95 | – |
| COc1cccc2c1nc(N)n1nc([C@H]3CC[C@H](C)N(c4cn(CC(C)(C)O)nc4C)C3)nc21 [Example 145B] | 8.92 | 7.24 | – |
| COc1cccc2c1nc(N)n1nc(C3CC(F)CN(c4cnn(CC(C)(C)O)c4)C3)nc21 (stereo not shown) [Example 149] | 6.70 | – | 32 |
| COc1cccc2c1nc(N)n1nc(C3CC(F)CN(c4cnn(CC5(O)CCC5)c4)C3)nc21 (stereo not shown) [Example 150, 1-((4-(3-(5-amino-7-methoxy-[1,2,4]triazolo[1,5-c]quinazolin-2-yl)-5-fluoropiperidin-1-yl)-1H-pyrazol-1-yl)methyl)cyclobutan-1-ol] | 7.09 | – | 74 |
| COc1cccc2c1nc(N)n1nc(C3CC(F)CN(c4cn(CC(C)(C)O)nc4C)C3)nc21 (stereo not shown) [Example 151, 1-(4-(3-(5-amino-7-methoxy-[1,2,4]triazolo[1,5-c]quinazolin-2-yl)-5-fluoropiperidin-1-yl)-3-methyl-1H-pyrazol-1-yl)-2-methylpropan-2-ol] | 6.68 | – | 27 |
| COc1cccc2c1nc(N)n1nc(C3CC(F)CN(c4cnn(CC(C)(C)O)c4C)C3)nc21 (stereo not shown) [Example 152, 1-(4-(3-(5-amino-7-methoxy-[1,2,4]triazolo[1,5-c]quinazolin-2-yl)-5-fluoropiperidin-1-yl)-5-methyl-1H-pyrazol-1-yl)-2-methylpropan-2-ol] | 6.60 | – | 38 |
| COc1cccc2c1nc(N)n1nc([C@@H]3CCN(c4cnn(CC5CC5)c4)C3)nc21 [Example 162, (R)-2-(1-(1-(cyclopropylmethyl)-1H-pyrazol-4-yl)pyrrolidin-3-yl)-7-methoxy[1,2,4]triazolo[1,5-c]quinazolin-5-amine] | 8.11 | 7.75 | – |
| COc1cccc2c1nc(N)n1nc(C3CCCCN(c4cn(C)nn4)C3)nc21 (stereo not shown) [Example 175] | 10.00 | 7.63 | – |
| COc1ccc2c(c1)nc(N)n1nc([C@@H]3CCCN(c4cnn(CC5(O)CCC5)c4)C3)nc21 [Example 176] | 9.15 | 6.72 | – |

| Compound | pIC50 [1] | pIC50 [2] | A2B binding % inh. @ 10000 nM [2] [% inh. @ 10000 nM] |
| --- | --- | --- | --- |
| COc1ccc2c(c1)nc(N)n1nc([C@@H]3CCCN(c4cnn(CC(F)(F)F)c4)C3)nc21 [Example 178, (R)-8-methoxy-2-(1-(1-(2,2,2-trifluoroethyl)-1H-pyrazol-4-yl)piperidin-3-yl)-[1,2,4]triazolo[1,5-c]quinazolin-5-amine] | 8.68 | 8.60 | – |
| COc1ccc2c(c1)nc(N)n1nc([C@@H]3CCCN(c4cnn(CC(C)(C)O)c4)C3)nc21 [Example 179, (R)-1-(4-(3-(5-amino-8-methoxy-[1,2,4]triazolo[1,5-c]quinazolin-2-yl)piperidin-1-yl)-1H-pyrazol-1-yl)-2-methylpropan-2-ol] | 8.46 | 6.99 | – |
| COc1ccc2c(c1)nc(N)n1nc([C@@H]3CCCN(c4cn(CC(C)(C)O)nc4C)C3)nc21 [Example 180, (R)-1-(4-(3-(5-amino-8-methoxy-[1,2,4]triazolo[1,5-c]quinazolin-2-yl)piperidin-1-yl)-3-methyl-1H-pyrazol-1-yl)-2-methylpropan-2-ol] | 9.00 | 6.60 | – |
| COc1ccc2c(c1)nc(N)n1nc([C@@H]3CCCN(c4cnn(CC(C)(C)O)c4C)C3)nc21 [Example 181, (R)-1-(4-(3-(5-amino-8-methoxy-[1,2,4]triazolo[1,5-c]quinazolin-2-yl)piperidin-1-yl)-5-methyl-1H-pyrazol-1-yl)-2-methylpropan-2-ol] | 9.52 | 6.98 | – |
| COc1ccc2c(c1)nc(N)n1nc([C@@H]3CCCN(c4cnn([C@H]5C[C@@](C)(O)C5)c4)C3)nc21 [Example 182, (1S,3s)-3-(4-((R)-3-(5-amino-8-methoxy-[1,2,4]-triazolo[1,5-c]quinazolin-2-yl)piperidin-1-yl)-1H-pyrazol-1-yl)-1-methylcyclobutan-1-ol] | 8.89 | 6.73 | – |
| COc1ccc2c(c1)nc(N)n1nc([C@@H]3CCCN(c4cnn(CC5(CF)COC5)c4)C3)nc21 [Example 183, (R)-2-(1-(1-((3-(fluoromethyl)oxetan-3-yl)methyl)-1H-pyrazol-4-yl)piperidin-3-yl)-8-methoxy-[1,2,4]triazolo[1,5-c]quinazolin-5-amine] | 6.80 | 5.39 | – |
| COc1ccc2c(c1)nc(N)n1nc([C@@H]3CCCN(c4cnn([C@H](C)C(C)(C)O)c4)C3)nc21 [Example 185A] | 9.10 | 7.01 | – |
| COc1ccc2c(c1)nc(N)n1nc([C@@H]3CCCN(c4cnn([C@@H](C)C(C)(C)O)c4)C3)nc21 [Example 185B, (S)-3-(4-((R)-3-(5-amino-8-methoxy-[1,2,4]triazolo[1,5-c]quinazolin-2-yl)piperidin-1-yl)-1H-pyrazol-1-yl)-2-methylbutan-2-ol] | 9.00 | 6.93 | – |
| COc1ccc2c(c1)nc(N)n1nc([C@@H]3CCCN(c4cn([C@H](C)C(C)(C)O)nc4C)C3)nc21 [Example 186A] | 9.40 | 6.34 | – |
| COc1ccc2c(c1)nc(N)n1nc([C@@H]3CCCN(c4cn([C@@H](C)C(C)(C)O)nc4C)C3)nc21 [Example 186B, (S)-3-(4-((R)-3-(5-amino-8-methoxy-[1,2,4]triazolo[1,5-c]quinazolin-2-yl)piperidin-1-yl)-3-methyl-1H-pyrazol-1-yl)-2-methylbutan-2-ol] | 9.40 | 6.49 | – |
| COc1ccc2c(c1)nc(N)n1nc([C@@H]3CCCN(c4cnn([C@@H]5CCC[C@H]5O)c4)C3)nc21 [Example 187A, (1R,2R)-2-(4-((R)-3-(5-amino-8-methoxy-[1,2,4]triazolo[1,5-c]quinazolin-2-yl)piperidin-1-yl)-1H-pyrazol-1-yl)cyclopentan-1-ol] | 8.55 | 5.89 | – |
| COc1ccc2c(c1)nc(N)n1nc([C@@H]3CCCN(c4cnn([C@H]5CCC[C@@H]5O)c4)C3)nc21 [Example 187B, (1S,2S)-2-(4-((R)-3-(5-amino-8-methoxy-[1,2,4]triazolo[1,5-c]quinazolin-2-yl)piperidin-1-yl)-1H-pyrazol-1-yl)cyclopentan-1-ol] | 6.39 | – | 16 |
| COc1ccc2c(c1)nc(N)n1nc([C@@H]3CCCN(c4cnn(C(C)(C)CO)c4)C3)nc21 [Example 188, (R)-2-(4-(3-(5-amino-8-methoxy[1,2,4]triazolo[1,5-c]quinazolin-2-yl)piperidin-1-yl)-1H-pyrazol-1-yl)-2-methylpropan-1-ol] | 9.15 | 7.35 | – |
| COc1ccc2c(c1)nc(N)n1nc([C@@H]3CCCN(c4cnn([C@H](C)C(C)(C)O)c4C)C3)nc21 [Example 189A, (R)-3-(4-((R)-3-(5-amino-8-methoxy[1,2,4]triazolo[1,5-c]quinazolin-2-yl)piperidin-1-yl)-5-methyl-1H-pyrazol-1-yl)-2-methylbutan-2-ol] | 9.22 | 6.64 | – |
| COc1ccc2c(c1)nc(N)n1nc([C@@H]3CCCN(c4cnn([C@@H](C)C(C)(C)O)c4C)C3)nc21 [Example 189B, (S)-3-(4-((R)-3-(5-amino-8-methoxy-[1,2,4]triazolo[1,5-c]quinazolin-2-yl)piperidin-1-yl)-5-methyl-1H-pyrazol-1-yl)-2-methylbutan-2-ol] | 9.15 | 6.54 | – |
| COc1ccc2c(c1)nc(N)n1nc([C@@H]3CCCN(c4cnc(OC(F)F)c(C)c4)C3)nc21 [Example 190, (R)-2-(1-(6-(difluoromethoxy)-5-methylpyridin-3-yl)piperidin-3-yl)-8-methoxy-[1,2,4]triazolo[1,5-c]quinazolin-5-amine] | 8.00 | 6.32 | – |
| COc1ccc2c(c1)nc(N)n1nc([C@@H]3CCCN(c4ccc(OC(F)F)nc4)C3)nc21 [Example 191, (R)-2-(-(6-(difluoromethoxy)pyridin-3-yl)piperidin-3-yl)-8-methoxy-[1,2,4]triazolo[1,5-c]quinazolin-5-amine] | 8.60 | 7.74 | – |
